This experiment concerns naïve nonsenescent IMR-90 fibroblasts. Put plainly: Conditioned media from senescent cells applied to naive IMR-90 fibroblasts (Col1a2, ACTA2 qPCR). The format is cell-based, human. How it is done:
RNA was extracted from cells or tissues using commercially available kits (Isolate II—Bioline for cells; Direct-zol—Zymo for tissues) according to the manufacturer's instructions. cDNA synthesis was performed using a High Capacity cDNA Reverse Transcription Kit (Thermo Fisher) according to the manufacturer's instructions. Quantitative PCR was performed on a LightCycler 480 II (Roche) using primers and probes designed for the Universal Probe Library. Primers and probes used for human transcripts were ACTB: 5′-CCAACCGCGAGAAGATGA (SEQ ID NO:1), 5′-TCCATCACGATGCCAGTG (SEQ ID NO:2), Probe #64; TUBA: 5′-cttcgtctccgccatcag (SEQ ID NO:3), 5′-ttgccaatctggacacca (SEQ ID NO:4), Probe #58; ALOX5: 5′-[…] (SEQ ID NO:5), 5′-[…] (SEQ ID NO:6), Probe #64; ALOX5AP: 5′-ggtctgcggggctacttt (SEQ ID NO:7), 5′-[…] (SEQ ID NO:8), Probe #18; ALOX12: 5′-[…] (SEQ ID NO:9), 5′-agccaggtcgtcaggag (SEQ ID NO:10), Probe #32; ALOX15: 5′-[…] (SEQ ID NO:11), 5′-[…] (SEQ ID NO:12), Probe #76; ALOX15B: 5′-[…] (SEQ ID NO:13), 5′-actgggaggcgaagaagg (SEQ ID NO:14), Probe #51; AKR1C1: 5′-catgcctgtcctgggattt (SEQ ID NO:15), 5′-[…] (SEQ ID NO:16), Probe #49; AKR1C2: 5′-ctatgcgcctgcagaggt (SEQ ID NO:17), 5′-[…] (SEQ ID NO:18), Probe #31; AKR1C3: 5′-[…] (SEQ ID NO:19), 5′-[…] (SEQ ID NO:20), Probe #78; CYSLTR2: 5′-[…] (SEQ ID NO:21), 5′-[…] (SEQ ID NO:22), Probe #18; DPEP1: 5′-gacgtcctgaggctggtg (SEQ ID NO:23), 5′-[…] (SEQ ID NO:24), Probe #9 (SEQ ID NO:25), ELOVL2: 5′-[…] (SEQ ID NO:26), 5′-[…] (SEQ ID NO:27), Probe #53; ELOVL4: 5′-catttggcccatggattc (SEQ ID NO:28), 5′-[…] (SEQ ID NO:29), Probe #31; ELOVL5: 5′-cccttccatgcgtccata (SEQ ID NO:30), 5′-[…] (SEQ ID NO:31), Probe #31; EPHX2: 5′-ttctgctggacaccctgaa (SEQ ID NO:32), 5′-[…] (SEQ ID NO:33), Probe #45; GPX4: 5′-ttcccgtgtaaccagttcg (SEQ ID NO:34), 5′-[…] (SEQ ID NO:35), Probe #36; LTA4H: 5′-ctgctctcacggtccagtc (SEQ ID NO:36), 5′-[…] (SEQ ID NO:37), Probe #64; LTBR2: 5′-[…] (SEQ ID NO:38), 5′-[…] (SEQ ID NO:39), Probe #33; LTC4S: 5′-[…] (SEQ ID NO:40), 5′-[…] (SEQ ID NO:41), Probe #18; PTGDS: 5′-[…] (SEQ ID NO:42), 5′-[…] (SEQ ID NO:43), Probe #36; PTGES: 5′-agagatgcctgcccacag (SEQ ID NO:44), 5′-tggccaccacgtacatctt (SEQ ID NO:45), Probe #4; PTGES2: 5′-[…] (SEQ ID NO:46), 5′-[…] (SEQ ID NO:47), Probe #49; PTGES3 (SEQ ID NO:48), 5′-[…] (SEQ ID NO:49), 5′-[…] (SEQ ID NO:50), Probe #48; PTGIS: 5′-[…] (SEQ ID NO:51), 5′-[…] (SEQ ID NO:52), Probe #45; PTGR1: 5′-atgatggggcagcaagtg (SEQ ID NO:53), 5′-cccatcagaaatggagtgc (SEQ ID NO:54), Probe #64; PTGS1: 5′-[…] (SEQ ID NO:55), 5′-gtggtggtccatgttcctg (SEQ ID NO:56), Probe #81; PTGS2: 5′-gatccccagggctcaaac (SEQ ID NO:57), 5′-[…] (SEQ ID NO:58), Probe #61; TBXAS1: 5′-[…] (SEQ ID NO:59), 5′-tgcctcccgtgtgaatct (SEQ ID NO:60), Probe #73; AREG: 5′-[…] (SEQ ID NO:61), 5′-[…] […]

In the case of `CS(=O)(=O)Nc1ccc([N+](=O)[O-])cc1OC1CCCCC1` [NS-398], the “decline of ACTA2 induction at Day 20 relative to Day 2” value (Day 20 CM) is on record as “abrogated this decline”.
As for `CC(c1cc2ccccc2s1)N(O)C(N)=O` (stereo not shown) [zileuton], the “collagen expression induced by CM from senescent cells” value is, setting by setting: (Day 2 CM, with or without TGF-beta, donor cells treated 24 h) “prevented this effect”; (Day 20 CM in the presence of TGF-beta) “again prevented”. The “smooth muscle actin expression (ACTA2)” value (regardless of time point) was “no effect”.

Source of the values: patent US20200371122A1, “BIOMARKER FOR SENESCENT CELLS” (Buck Institute for Research on Aging, priority 2017, published 2020).
